Tests used:
Format in all cases: cell-based
[1] = test system: non-synovial control cancer cell lines (293T, A549, G401); assay: Growth of non-synovial control cancer cell lines, Example 3; conditions: FIGS. 5, 6, 7
Method: (§1) Growth medium and compounds were refreshed every 3-4 days.
(§2) The number of cells was optimized for each cell line. Growth medium and compounds were refreshed every 3-5 days. SYO1, Yamato, A549, 293T and HS-SY-II cells were fixed and stained at day 11. ASKA cells were fixed and stained at day 23. Staining was done by incubation with crystal violet solution (0.5 g Crystal Violet, 27 ml 37% Formaldehyde, 100 mL 10×PBS, 10 mL Methanol, 863 dH20 to 1 L) for 30 min followed by 3× washes with water and drying the plates for at least 24 h at room temperature. Subsequently plates were scanned on an Odyssey CLx Imaging system (FIG. 6).
(§3) Cells were seeded into 96-well ultra low cluster plate (Costar, #7007) in 200 μL complete media and treated at day 2 with DMSO, Staurosporin, or BRD9 degarder, Compound 1, at indicated doses (FIG. 7). Media and compounds were changed every 5 d and cell colonies were imaged at day 14.

[2] = test system: non-synovial control cancer cell lines (RD, HCT116, and Calu6); assay: Crystal violet growth assay, day 14, non-synovial control cancer cell lines, Example 4; conditions: daily treatment, day 14, crystal violet, FIGS. 8 and 9
Method: (§4) Procedure: Cells were seeded into 6-well or 12-well plates and were treated daily with a BRD9 degrader (Compound 1), a bromo-domain BRD9 binder (Compound 2), E3 ligase binder (lenalidomide), DMSO, or staurosporin (positive control for cell killing), at indicated concentrations. The number of cells was optimized for each cell line. Growth media was refreshed every 5 days. By day 14, medium was removed, cells were washed with PBS, and stained using 500 μL of 0.005% (w/v) crystal violet solution in 25% (v/v) methanol for at least 1 hour at room temperature. Subsequently plates were scanned on an Odyssey CLx Imaging system.

[3] = test system: synovial sarcoma cell lines (SYO1, Yamato, HS-SY-II, and ASKA); assay: Growth of synovial sarcoma cell lines (IncuCyte confluency, crystal violet staining, colony imaging), Example 3; conditions: FIGS. 5, 6, 7, 1 μM in crystal violet assay
Method: as §1, §2, §3

[4] = test system: synovial sarcoma cell lines (SYO1, HS-SY-II, and ASKA); assay: Crystal violet growth assay, day 14, synovial sarcoma cell lines, Example 4; conditions: for growth of synovial sarcoma cell lines: SYO1, HS-SY-II, ASKA, daily treatment, day 14, crystal violet, FIGS. 8 and 9
Method: as §4

[5] = test system: SYO1 cells; assay: Apoptosis assay, Annexin V-FITC Apoptosis Detection Kit; conditions: 200 nM or 1 μM, 8 days, compared to DMSO controls
Method: (§5) Compounds were refreshed every 5 days. Cell cycle analysis was performed using the Click-iT™ Plus EdU Flow Cytometry Assay (Invitrogen). The apoptosis assay was performed using the Annexin V-FITC Apoptosis Detection Kit (Sigma A9210). Assays were performed according to the manufacturer's protocol.

[6] = test system: SYO1 cells; assay: Cell cycle analysis, Click-iT Plus EdU Flow Cytometry Assay; conditions: 200 nM or 1 μM, 8 or 13 days, compared to DMSO and lenalidomide
Method: as §5

SMILES | growth of non-synovial control cancer cell lines [1] | growth of non-synovial control cancer cell lines [2] | growth of synovial sarcoma cell lines [3] | growth of synovial sarcoma cell lines [4] | numbers of early- and late-apoptotic cells [5] | growth inhibition compared among the test agents ([4]; all synovial cell lines) | numbers of cells in the S-phase of the cell cycle [6]
COc1cc(-c2cn(C)c(=O)c3cnccc23)cc(OC)c1CN(C)C [Compound B] | does not result in inhibition of the growth | did not result in inhibition of the growth | inhibition of the growth of the cells | inhibition of the growth of the cells |  |  | 
COc1cc(-c2cn(C)c(=O)c3cnccc23)cc(OC)c1CN(C)CC(=O)NCCOCCOCCNc1cccc2c1C(=O)N(C1CCC(=O)NC1=O)C2=O (centres unmarked) [Compound A] | does not result in inhibition of the growth | did not result in inhibition of the growth | inhibition of the growth of the cells | inhibition of the growth of the cells | increased numbers of early- and late-apoptotic cells | most significant growth inhibition | reduced numbers of cells in the S-phase

From patent publication US11787800B2, “BRD9 degraders and uses thereof” (Foghorn Therapeutics Inc., priority 2020, dated 2023)
